{"source": "ChEMBL document CHEMBL4000228", "about": "“Synthesis of bioactive and fluorescent pyridine-triazole-coumarin peptidomimetics through sequential click-multicomponent reactions” (Bioorg Med Chem Lett, 2017)", "key": {"MCF7 [1]": {"test_system": "MCF7", "experiment": "Induction of morphological changes in human MCF7 cells at 40 uM after 48 hrs by DAPI staining based fluorescence microscopic method", "assay_type": "functional, cell-based"}, "MCF7 [2]": {"test_system": "MCF7", "experiment": "Induction of morphological changes in human MCF7 cells at 40 uM after 48 hrs by DAPI staining based inverted light microscopic method", "assay_type": "functional, cell-based"}}, "note": "Active and inactive are the calls of the source. The calls are words filed in the database; no cut-off is given here.", "data": [{"smiles": "COc1ccc(C(CC(=O)c2cc3ccccc3oc2=O)NC(=O)CCn2cc(COc3ccc(-c4c(C#N)c(N)nc(Sc5ccccc5)c4C#N)cc3OC)nn2)cc1", "note": "(configuration not stated)", "values": [{"measurement": "Activity", "setting": "MCF7 [1]", "result": "Active"}, {"measurement": "Activity", "setting": "MCF7 [2]", "result": "Active"}]}]}
